Where two headings read alike, the source gives them in different places. Starred links: 1 amine or outer side, 2 acyl side, 3 side chain; linkers in the order of their positions; H or OH if unused. Non-standard residues stand in square brackets, D forms with d. Residues, ends and D or L forms follow the SMILES beside them. Groups on a side chain read outwards from the residue. *: point of attachment. C20 diacid = O=C(O)CCCCCCCCCCCCCCCCCCC(=O)*; γGlu = O=C(O)[C@H](CCC(=O)[*:2])N[*:1]; NMeI = CC[C@H](C)[C@H](NC)C(=O)O; Nle = CCCC[C@H](N)C(=O)O; AEEA = NCCOCCOCC(=O)O; Aib = CC(C)(N)C(=O)O
How the values were obtained:
hCRHR1 = biological target: T1, hCRHR1 (Homo sapiens, UniProt P34998); test: HTRF cAMP assay, determination of hCRHR1 potency (peptide libraries 5 conc., purified peptides 11 conc.); format: cell-based; conditions: read-out: hCRHR1 EC50
T1 sequence (P34998 24-415): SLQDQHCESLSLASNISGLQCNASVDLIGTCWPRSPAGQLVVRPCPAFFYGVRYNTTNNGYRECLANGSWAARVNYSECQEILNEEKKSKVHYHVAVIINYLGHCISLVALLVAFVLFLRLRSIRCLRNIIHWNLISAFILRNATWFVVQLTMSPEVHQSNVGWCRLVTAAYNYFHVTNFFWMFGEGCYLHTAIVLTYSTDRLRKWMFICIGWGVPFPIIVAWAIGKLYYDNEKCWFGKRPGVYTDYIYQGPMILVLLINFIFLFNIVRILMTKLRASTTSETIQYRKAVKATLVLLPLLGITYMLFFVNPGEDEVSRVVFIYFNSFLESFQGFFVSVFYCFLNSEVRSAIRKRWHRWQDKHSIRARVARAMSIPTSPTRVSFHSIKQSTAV
In short: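 Cellular cAMP was read by time-resolved FRET between d2-labelled cAMP and cryptate anti-cAMP antibody. The cells were freshly thawed suspension CHO-K1 cells stably expressing human CRHR1.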

[1] = Thioflavin T fibril formation assay of purified peptides; format: physicochemical; set-up: key: Amyloid fibril formation detected by an increase in ThT fluorescence was denoted with "Yes"; samples without increasing ThT fluorescence hence not forming amyloid fibrils were denoted "No"
Description: Thioflavin T fibril formation assay: Peptides were dissolved as 267 µM in 50 mM phosphate buffer pH 7.5 for 2 h at room temperature on a rocking table. The samples were then divided into three replicates of 80 µl/well and mixed with 2 µl/well Thioflavin T (ThT)to a final concentration of 4 µM ThT in a black 384 well microplate with a clear bottom (Greiner #781096). The plate was inserted in a CLARIOstar Plus microplate reader (BMG Labtech) and fibril formation was measured as an increase in fluorescence emission at 480 nm (excitation at 450 nm) during 96 h at 40°C with cycles of 5 min rest and 5 min linearshaking at700 rpm.
Compounds were dissolved to 200 µM (ca 1.0 mg/ml) in 50 mM phosphate buffer with preparation and ThT assay performed as described in the "General procedure for determination of fibril formation of peptides." above. Furthermore, samples were adjusted to pH values as indicated below. Additional co-formulations of compounds with semaglutide were prepared by dissolving compounds to 200 µM in commercially available semaglutide drug product (Ozempic®); these co-formulations were adjusted to pH 7.4.

hCRHR2 = biological target: T2, hCRHR2 (Homo sapiens, UniProt Q13324); test: HTRF cAMP assay, determination of hCRHR2 potency (peptide libraries 5 conc., purified peptides 11 conc.); format: cell-based; conditions: for EC50: read-out: hCRHR2 EC50
T2 sequence (Q13324 1-411): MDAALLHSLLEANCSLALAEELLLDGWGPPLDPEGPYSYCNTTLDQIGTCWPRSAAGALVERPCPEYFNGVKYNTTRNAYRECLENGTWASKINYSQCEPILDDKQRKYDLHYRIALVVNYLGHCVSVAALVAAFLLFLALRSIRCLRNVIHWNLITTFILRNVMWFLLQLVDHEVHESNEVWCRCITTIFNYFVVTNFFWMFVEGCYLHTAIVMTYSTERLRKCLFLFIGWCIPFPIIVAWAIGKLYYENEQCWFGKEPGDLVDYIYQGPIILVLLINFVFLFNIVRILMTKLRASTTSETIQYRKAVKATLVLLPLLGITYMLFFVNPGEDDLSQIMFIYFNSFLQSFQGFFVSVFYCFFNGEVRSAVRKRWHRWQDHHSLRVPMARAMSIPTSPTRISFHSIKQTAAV
In short: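 Cells: CHO-K1/hCRHR2 stable clone, suspension, freshly thawed. Readout: competitive TR-FRET, anti-cAMP cryptate vs cAMP-d2. Analysis: sigmoid variable-slope nonlinear regression → EC50.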

[2] = pH 7.5
[3] = Chemical stability of purified peptides (RP-UHPLC main peak purity loss); format: physicochemical; conditions: for Chemical stability at pH 7.5 after 28 days at 40°C (% degradation): pH 7.5, 28 days
Description: Chemical stability was tested at a concentration of approximately of 1.0 mg/ml peptide in the following vehicles: 50 mM phosphate buffer pH 7.5. Dissolved samples were incubated for at least 2 h at room temperature on a rocking table. The main peak purity at time zero (T0) was determined using reversed phase chromatography. The samples were incubated at 40°C for 14 days (T14) and 28 days (T28). The samples were analyzed with reversed phase chromatography and size exclusion chromatography.
Reversed Phase chromatography was performed on a Thermo Dionex Ultimate UHPLC system with UV detection at 215 nm) and equipped with a Kinetex column (1.7 µm, C8, 100 Å, 150 x 2.1 mm (00F-4499-AN)). Analysis was performed by gradient elution with buffer A (0.1% TFA in 95:5 H2O:acetonitrile) and buffer B (0.1% TFA in 5:95 H2O: acetonitrile) at a column temperature of 50 °C (gradient used 25-55%B over 40 min. Flowrate was 0.5 mL/min. The main peak purity was determined from the integrated chromatogram as the area under the main peak relative to the total peak area. The purity loss was calculated as the difference between the T0 and T14 time point and/or as the difference between the T0 and T28 time point.
The chemical stability of selected peptides was evaluated at varying pH's at 40° C over 28 days. Samples were prepared and analysed as described in procedure with the addition of pH adjusting samples to the targets indicated below. As a comparator,r commercially available semaglutide drug product (Ozempic®, Novo Nordisk) was included in the sample set.

Row | SMILES | EC50 (hCRHR1; Table 5, purified peptides) | Fibrillation (pH 7.5) ([1]; pH 7.5) | Selectivity ratio (hCRHR1/ hCRHR2) (hCRHR2; Table 5) | EC50 (hCRHR2; Table 5, purified peptides) | Solubility pH 7.5, target conc. =10 mg/mL (measured mg/mL) [2] | Chemical stability at pH 7.5 after 14 days at 40°C (% degradation) ([3]; pH 7.5, 14 days, 40°C) | Chemical stability at pH 7.5 after 28 days at 40°C (% degradation) ([3]; 40°C) | EC50 (hCRHR1; purified peptides, CHO-K1 cells stably expressing hCRHR1, cAMP HTRF) | Fibrillation (pH 7.5) ([1]; pH 7.5, ThT assay) | Selectivity ratio (hCRHR1/ hCRHR2) (hCRHR2; hCRHR1-EC50/hCRHR2-EC50) | EC50 (hCRHR2; purified peptides, CHO-K1 cells stably expressing hCRHR2, cAMP HTRF) | Chemical stability at pH 7.5 after 14 days at 40°C (% degradation) ([3]; pH 7.5, 40°C, 14 days, first value of cell)
1 | CCCC[C@H](NC(=O)[C@@H](NC(=O)[C@H](CCC(=O)O)NC(=O)C(C)(C)NC(=O)[C@H](CC(N)=O)NC(=O)[C@@H](NC(=O)[C@H](CCCCNC(=O)COCCOCCNC(=O)COCCOCCNC(=O)CC[C@H](NC(=O)CC[C@H](NC(=O)CCCCCCCCCCCCCCCCCCC(=O)O)C(=O)O)C(=O)O)NC(=O)[C@H](C)NC(=O)[C@H](CCC(N)=O)NC(=O)[C@H](CCC(=O)O)NC(=O)[C@H](CCCNC(=N)N)NC(=O)[C@H](C)NC(=O)[C@H](C)NC(=O)[C@H](CCCNC(=N)N)NC(=O)[C@H](C)NC(=O)[C@H](CCCNC(=N)N)NC(=O)[C@H](C)NC(=O)[C@H](CCC(N)=O)NC(=O)[C@H](CCC(=O)O)NC(=O)[C@H](CC(C)C)NC(=O)[C@H](CC(C)C)NC(=O)[C@@H](NC(=O)[C@H](CCC(N)=O)NC(=O)[C@H](CC(C)C)NC(=O)[C@H](CC(C)C)NC(=O)CNC(=O)[C@@H](NC(=O)[C@@H]1CCCN1C(=O)[C@@H](NC(=O)[C@H](CC(=O)O)NC(=O)[C@H](CC(C)C)NC(=O)[C@H](CO)NC(=O)[C@H](CC(C)C)NC(=O)[C@@H](NC(=O)[C@@H](N)[C@@H](C)CC)C(C)C)C(C)C)[C@@H](C)CC)[C@@H](C)CC)[C@@H](C)O)[C@@H](C)CC)C(=O)N[C@@H](C)C(=O)N[C@@H](CCC(=O)O)C(=O)N[C@H](C(N)=O)[C@@H](C)CC [compound 100] (H-IVLSLDVPIGLLQILLEQARARAAREQAK([AEEA-AEEA-γGlu-γGlu-C20 diacid])TN[Aib]EI[Nle]AEI-NH2) | > 5000 nM | No | >6494 | 0.77 nM | 11 mg/mL | -0.43% | -0.8% | – | – | – | – | –
2 | CCCC[C@H](NC(=O)[C@@H](NC(=O)[C@H](CCC(=O)O)NC(=O)[C@H](C)NC(=O)[C@H](CC(N)=O)NC(=O)[C@H](CCC(=O)O)NC(=O)[C@H](CCCCNC(=O)COCCOCCNC(=O)COCCOCCNC(=O)CC[C@H](NC(=O)CC[C@H](NC(=O)CCCCCCCCCCCCCCCCCCC(=O)O)C(=O)O)C(=O)O)NC(=O)[C@H](C)NC(=O)[C@H](CCC(N)=O)NC(=O)[C@H](CCC(=O)O)NC(=O)[C@H](CCCNC(=N)N)NC(=O)[C@H](C)NC(=O)[C@H](C)NC(=O)[C@H](CCCNC(=N)N)NC(=O)[C@H](C)NC(=O)[C@H](CCCNC(=N)N)NC(=O)[C@H](C)NC(=O)[C@H](CCC(N)=O)NC(=O)[C@H](CO)NC(=O)[C@H](CC(C)C)NC(=O)[C@H](CC(C)C)NC(=O)[C@@H](NC(=O)[C@H](CCC(N)=O)NC(=O)[C@H](CC(C)C)NC(=O)[C@H](CC(C)C)NC(=O)CNC(=O)[C@@H](NC(=O)[C@@H]1CCCN1C(=O)[C@@H](NC(=O)[C@H](CC(=O)O)NC(=O)[C@H](CC(C)C)NC(=O)[C@H](CO)NC(=O)[C@H](CC(C)C)NC(=O)[C@@H](NC(=O)[C@@H](N)[C@@H](C)CC)C(C)C)C(C)C)[C@@H](C)CC)[C@@H](C)CC)[C@@H](C)CC)C(=O)N[C@@H](C)C(=O)N[C@@H](CCC(=O)O)C(=O)N[C@H](C(N)=O)C(C)C [compound 239] (H-IVLSLDVPIGLLQILLSQARARAAREQAK([AEEA-AEEA-γGlu-γGlu-C20 diacid])ENAEI[Nle]AEV-NH2) | > 5000 nM | No | >5556 | 0.9 nM | 11 mg/mL | -1.9% | -2.2% | – | – | – | – | –
3 | CC[C@H](C)[C@H](NC)C(=O)N[C@H](C(=O)N[C@@H](CC(C)C)C(=O)N[C@@H](CO)C(=O)N[C@@H](CC(C)C)C(=O)N[C@@H](CC(=O)O)C(=O)N[C@H](C(=O)N1CCC[C@H]1C(=O)N[C@H](C(=O)NCC(=O)N[C@@H](CC(C)C)C(=O)N[C@@H](CC(C)C)C(=O)N[C@@H](CCC(N)=O)C(=O)N[C@H](C(=O)N[C@@H](CC(C)C)C(=O)N[C@@H](CC(C)C)C(=O)N[C@@H](CCC(=O)O)C(=O)N[C@@H](CCC(N)=O)C(=O)N[C@@H](C)C(=O)N[C@@H](CCCNC(=N)N)C(=O)N[C@@H](C)C(=O)N[C@@H](CCCNC(=N)N)C(=O)N[C@@H](C)C(=O)N[C@@H](C)C(=O)N[C@@H](CCCNC(=N)N)C(=O)N[C@@H](CCC(=O)O)C(=O)N[C@@H](CCC(N)=O)C(=O)N[C@@H](C)C(=O)N[C@@H](CCCCNC(=O)COCCOCCNC(=O)COCCOCCNC(=O)CC[C@H](NC(=O)CC[C@H](NC(=O)CCCCCCCCCCCCCCCCCCC(=O)O)C(=O)O)C(=O)O)C(=O)N[C@@H](CCC(=O)O)C(=O)N[C@@H](CC(N)=O)C(=O)N[C@@H](C)C(=O)N[C@@H](CCC(=O)O)C(=O)N[C@H](C(=O)N[C@@H](CC(C)C)C(=O)N[C@@H](C)C(=O)N[C@@H](CCC(=O)O)C(=O)N[C@H](C(N)=O)C(C)C)[C@@H](C)CC)[C@@H](C)CC)[C@@H](C)CC)C(C)C)C(C)C [SEQ ID NO: 18] (H-[NMeI]VLSLDVPIGLLQILLEQARARAAREQAK([AEEA-AEEA-γGlu-γGlu-C20 diacid])ENAEILAEV-NH2) | – | – | – | – | 11 mg/mL | – | – | > 5000 nM | No | >3571 | 1.4 nM | -2.2 / ND %

From patent publication EP4810052A2, “HCRHR2 SELECTIVE POLYPEPTIDES” (Gubra A/S, priority 2023, dated 2026)
